Measurements as given in patent US7919468B2, “Compounds useful as modulators of the proteasome activity” (Centre National de la Recherche Scientifique (C.N.R.S.), priority 2005, dated 2011).
Peptide text beside a SMILES is read from it. * marks the point of attachment. Boc = CC(C)(C)OC(=O)*; NHBn = c1ccc(CN*)cc1; NHPh = c1ccc(N*)cc1; Bn = c1ccc(C*)cc1

Key:
[1] = test system: T1, rabbit 20S proteasome, chymotrypsin-like (CT-L) activity; test: Rabbit 20S proteasome fluorescent assay, chymotrypsin-like activity (Suc-LLVY-amc); assay type: biochemical; settings: [Compound]=100 μM, pH 7.5, 30° C.
T1 construct: other: [Compound]=100 μM, pH 7.5, 30° C
Description: (§1) 20S proteasome from rabbit reticulocyte was from commercial source (Alexis Biochemicals)
(§2) Semi-automatic fluorescent assays using Suc-LLVY-amc (SEQ ID NO: 2) for chymotrypsin-like activity, Z-LLE-SNA for post-acid activity and Boc-LLR-amc for trypsin-like activity of proteasome were performed at pH 7.5 and 30° C. using BMG Fluostar microplate reader (Suc=succinyl; amc=7-amino-4-methylcoumarin; Z=benzyloxycarbonyl; NA=2-naphtylamine; Boc=tert-butoxycarbonyl). The buffers were: 20 mM Tris, 1 mM DTT, 10% glycerol, 3% (v/v) DMSO (ChT-L and PA activities); 20 mM Tris, 1 mM DTT, 10% glycerol, 3% (v/v) DMSO. Studied compounds were dissolved in DMSO prior dissolution in the buffer. Proteasome was incubated for 15 min at 30° C. in the presence of the studied compound (0.1-100 μM). A control assay in the absence of tested compounds contained DMSO at the same concentration (3%, v/v). The fluorogenic proteasome substrate was then added and the hydrolysis of the appropriate fluorescent substrate was monitored for 1 h (λexc=360, λem=465 nm for amc substrates and λexc=340, λem=405 nm for the βNA substrate). Initial rates determined in control experiments were considered to be 100% of the peptidasic activity; initial rates that were above 100% in the presence of a test compound were considered to be activations, while initial rates below 100% were considered to be inhibitions. For weak inhibitors, the percentage of inhibition at a reference concentration (100 μM) is reported. The results, expressed in % inhibition (or activation factor), were obtained by calculating the average of at least two independent experiments, the variability was less than 10%. The inhibitory activity of more efficient compounds are expressed as IC50 calculated by fitting the experimental data to the equation 1: % Inhibition=100 [I]0/(IC50+[I]0)=100 (v0−vi/v0), or equation 2: % Inhibition=100 [I]0^nH/(IC50^nH+[I]0^nH), nH is the Hill number. v0 and vi are the initial rates in the absence and in the presence of inhibitor. A Dixon plot has been used to determine the inhibition constant Ki for competitive inhibition by compound A215. The reversible character of inhibition or activation was determined by measuring the activity of treated enzyme after the inhibitor molecule has been withdrawn from the reaction medium.
(§3) Inhibition of Rabbit 20 S Proteasome (pH=7.5, 30° C.)
(§4) Activation of Rabbit 20 S Proteasome (pH=7.5, 30° C., [Compound]=100 μM)

[2] = test system: rabbit 20S proteasome, trypsin-like (T-L) activity; test: Rabbit 20S proteasome fluorescent assay, trypsin-like activity (Boc-LLR-amc); assay type: biochemical; settings: [Compound]=100 μM, pH 7.5, 30° C.
Description: as §1, §2, §3, §4

[3] = test system: rabbit 20S proteasome, post-acid (PA) activity; test: Rabbit 20S proteasome fluorescent assay, post-acid activity (Z-LLE-βNA); assay type: biochemical; settings: [Compound]=100 μM, pH 7.5, 30° C.
Description: as §1, §2, §3, §4

[4] = target: T2, rabbit 20S proteasome, chymotrypsin-like (CT-L) activity (Oryctolagus cuniculus, UniProt G1T4Q9); test: Rabbit 20S proteasome fluorescent assay, chymotrypsin-like activity (Suc-LLVY-amc); assay type: biochemical; settings: pH 7.5, 30° C.
T2 construct: other: 100 μM compound, pH 7.5, 30° C; other: pH 7.5, 30° C; CT-L Ki
T2 sequence (G1T4Q9 1-263): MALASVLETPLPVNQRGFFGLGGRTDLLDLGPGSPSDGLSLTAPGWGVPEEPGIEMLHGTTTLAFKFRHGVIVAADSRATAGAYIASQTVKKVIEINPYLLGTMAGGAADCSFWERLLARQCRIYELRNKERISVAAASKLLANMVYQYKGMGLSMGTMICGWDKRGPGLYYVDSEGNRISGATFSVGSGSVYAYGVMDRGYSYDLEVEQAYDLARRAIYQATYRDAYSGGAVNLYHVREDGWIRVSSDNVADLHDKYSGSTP
Description: as §1, §2, §3, §4

[5] = target: T3, rabbit 20S proteasome, trypsin-like (T-L) activity (Oryctolagus cuniculus, UniProt G1SWK8); test: Rabbit 20S proteasome fluorescent assay, trypsin-like activity (Boc-LLR-amc); assay type: biochemical; settings: pH 7.5, 30° C.; for inhibition at 100 µM: 100 μM compound
T3 construct: other: 100 μM compound, pH 7.5, 30° C; other: pH 7.5, 30° C
T3 sequence (G1SWK8 1-271): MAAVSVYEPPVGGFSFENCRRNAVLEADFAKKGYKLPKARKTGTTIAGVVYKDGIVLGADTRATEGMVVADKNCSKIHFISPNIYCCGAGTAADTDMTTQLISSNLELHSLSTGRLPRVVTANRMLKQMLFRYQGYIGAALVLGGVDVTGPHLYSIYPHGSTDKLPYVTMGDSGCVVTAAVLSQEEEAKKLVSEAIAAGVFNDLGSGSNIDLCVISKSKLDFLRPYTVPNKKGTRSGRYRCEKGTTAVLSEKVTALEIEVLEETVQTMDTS
Description: as §1, §2, §3, §4

[6] = target: T4, rabbit 20S proteasome, post-acid (PA) activity (Oryctolagus cuniculus, UniProt A0A5F9DQW2); test: Rabbit 20S proteasome fluorescent assay, post-acid activity (Z-LLE-βNA); assay type: biochemical; settings: pH 7.5, 30° C.; for PA % inhibition (at 100 μM): 100 μM compound
T4 construct: other: 100 μM compound, pH 7.5, 30° C; other: pH 7.5, 30° C
T4 sequence (A0A5F9DQW2 1-212): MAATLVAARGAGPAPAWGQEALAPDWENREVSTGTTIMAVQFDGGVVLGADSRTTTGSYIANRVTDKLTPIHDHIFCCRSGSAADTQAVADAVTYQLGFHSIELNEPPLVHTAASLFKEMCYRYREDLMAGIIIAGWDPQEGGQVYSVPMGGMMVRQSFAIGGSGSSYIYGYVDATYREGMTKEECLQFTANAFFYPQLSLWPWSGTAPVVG
Description: as §1, §2, §3, §4

[7] = patients enrolled in clinical trials (thrombocytopaenia, fatigue, peripheral neuropathy, neutropenia); cited from earlier work

Compound	CT-L Activation factor [1]	T-L Activation factor [2]	other results
CC(C)(C)OC(=O)N[C@@H](Cc1ccc(OCc2ccccc2)cc1)C(=O)N[C@@H](CCCN(C(=N)NC(=O)OCc1ccccc1)C(=O)OCc1ccccc1)C(=O)N[C@@H](Cc1c[nH]c2ccccc12)C(=O)Nc1ccccc1 [SP310C, N-Boc-Tyr(Bn)-Arg(Z)-2-Trp-NHPh]	1.7	1.6	
CC(C)(C)OC(=O)NCCCCNC(=O)[C@H](Cc1c[nH]c2ccccc12)NC(=O)[C@H](CC(N)=O)NC(=O)[C@H](Cc1ccc(OCc2ccccc2)cc1)NC(=O)OC(C)(C)C [SP323C2, N-Boc-Tyr(Bn)-Asn-Trp-NH(CH2)4NHBoc]	1.6	2.2	PA Activation factor [3]: 1.2
C[C@H](NC(=O)[C@H](Cc1ccc(OCc2ccccc2)cc1)NC(=O)OC(C)(C)C)C(=O)N[C@@H](Cc1c[nH]c2ccccc12)C(=O)Nc1ccccc1 [SP303r2, N-Boc-Tyr(Bn)-Ala-Trp-NHPh] (Boc-Tyr(Bn)-Ala-Trp-NHPh)	1.4	1.6	
CC(C)(C)OC(=O)N[C@@H](Cc1ccc(O)cc1)C(=O)N[C@@H](CCCNC(=N)N)C(=O)N[C@@H](Cc1c[nH]c2ccccc12)C(=O)NCc1ccccc1 [SP325, N-Boc-Tyr-Arg-Trp-NHCH2Ph] (Boc-Tyr-Arg-Trp-NHBn)			IC50 [4]: 5.4 µM; IC50 [5]: 19 µM; IC50 [6]: 2.5 µM
CC(C)(C)OC(=O)N[C@@H](Cc1ccc(O)cc1)C(=O)N[C@@H](CCCNC(=N)N)C(=O)N[C@@H](Cc1c[nH]c2ccccc12)C(=O)Nc1ccc(O)cc1 [SP324, N-Boc-Tyr-Arg-Trp-NH(4-OH)Ph]			IC50 [4]: 9 µM; IC50 [5]: 21 µM; IC50 [6]: 3 µM
CNC(=O)[C@H](Cc1c[nH]c2c(-c3cc(C[C@H](NC(=O)OC(C)(C)C)C(=O)N[C@@H](C)C(=O)OC)ccc3OCc3ccccc3)cccc12)NC(=O)OCc1ccccc1 [SP225F2]			inhibition at 100 µM [5]: 49%; PA % inhibition (at 100 μM) [6]: 25%
CC(C)(C)OC(=O)N[C@@H](Cc1ccc(OCc2ccccc2)cc1)C(=O)N[C@@H](CC(N)=O)C(=O)N[C@@H](Cc1c[nH]c2ccccc12)C(=O)Nc1ccccc1 [SP314C2, N-Boc-Tyr(Bn)-Asn-Trp-NHPh] (Boc-Tyr(Bn)-Asn-Trp-NHPh)	1.5	2.5	
CC(C)(C)OC(=O)NCCCC[C@H](NC(=O)[C@H](Cc1ccc(OCc2ccccc2)cc1)NC(=O)OC(C)(C)C)C(=O)N[C@@H](Cc1c[nH]c2ccccc12)C(=O)NCc1ccccc1 [SP307P, N-Boc-Tyr(Bn)-Lys(Boc)-Trp-NHCH2Ph] (Boc-Tyr(Bn)-Lys(Boc)-Trp-NHBn)	1.3	1.8	
CC(C)C[C@H](NC(=O)[C@H](Cc1ccc(OCc2ccccc2)cc1)NC(=O)OC(C)(C)C)C(=O)N[C@@H](Cc1c[nH]c2ccccc12)C(=O)Nc1ccccc1 [A424P, N-Boc-Tyr(Bn)-Leu-Trp-NHPh] (Boc-Tyr(Bn)-Leu-Trp-NHPh)	1.2	1.9	
CC(C)(C)OC(=O)NCCCCNC(=O)[C@H](Cc1c[nH]c2ccccc12)NC(=O)[C@H](CCCCNC(=O)OC(C)(C)C)NC(=O)[C@H](Cc1ccc(OCc2ccccc2)cc1)NC(=O)OC(C)(C)C [SP308P, N-Boc-Tyr(Bn)-Lys(Boc)-Trp-NH(CH2)4NHBoc]	1.6	1.9	
C[C@H](NC(=O)[C@H](Cc1ccc(OCc2ccccc2)c(I)c1)NC(=O)OC(C)(C)C)C(=O)N[C@@H](Cc1c[nH]c2c(Br)cccc12)C(=O)O [A215, N-Boc-3-iodo-Tyr(Bn)-Ala-7-bromo-Trp-OH]			Ki ([4]; Dixon plot, competitive inhibition): 2 µM; IC50 [4]: 6.8 µM; IC50 [5]: 14.4 µM; IC50 [6]: 11.3 µM
CC(C)C[C@H](NC(=O)[C@H](Cc1ccccc1)NC(=O)c1cnccn1)B(O)O [Bortezomib, bortezomib]			patients with adverse events [7]: 30%
CC(C)(C)OC(=O)NCCCC[C@H](NC(=O)[C@H](Cc1ccc(OCc2ccccc2)cc1)NC(=O)OC(C)(C)C)C(=O)N[C@@H](Cc1c[nH]c2ccccc12)C(=O)Nc1ccccc1 [SP306P, N-Boc-Tyr(Bn)-Lys(Boc)-Trp-NHPh] (Boc-Tyr(Bn)-Lys(Boc)-Trp-NHPh)	1.2	1.6	
CC(C)(C)OC(=O)NCCCC[C@H](NC(=O)[C@H](Cc1ccc(OCc2ccccc2)cc1)NC(=O)OC(C)(C)C)C(=O)N[C@@H](Cc1c[nH]c2ccccc12)C(=O)Nc1ccc(O)cc1 [SP319P, N-Boc-Tyr(Bn)-Lys(Boc)-Trp-NH(4-OH)Ph]			inhibition at 100 µM ([4]; 100 μM compound): 36%; inhibition at 100 µM [5]: 14%
CC(C)(C)OC(=O)NCCCCNC(=O)[C@H](Cc1c[nH]c2ccccc12)NC(=O)[C@H](CCCN(C(=N)NC(=O)OCc1ccccc1)C(=O)OCc1ccccc1)NC(=O)[C@H](Cc1ccc(OCc2ccccc2)cc1)NC(=O)OC(C)(C)C [SP311C, N-Boc-Tyr(Bn)-Arg(Z)-2-Trp-NH(CH2)4NHBoc]	1.3	1.9	PA Activation factor [3]: 1.2
CC(C)(C)OC(=O)N[C@@H](Cc1ccc(OCc2ccccc2)cc1)C(=O)N[C@@H](CCCN(C(=N)NC(=O)OCc1ccccc1)C(=O)OCc1ccccc1)C(=O)N[C@@H](Cc1c[nH]c2ccccc12)C(=O)NCc1ccccc1 [SP315C2, N-Boc-Tyr(Bn)-Arg(Z)-2-Trp-NHCH2Ph]	1.2	1.9	
CC(C)(C)OC(=O)N[C@@H](Cc1ccc(OCc2ccccc2)cc1)C(=O)NCC(=O)N[C@@H](Cc1c[nH]c2ccccc12)C(=O)NCc1ccccc1 [PSV11R, N-Boc-Tyr(Bn)-Gly-Trp-NHCH2Ph] (Boc-Tyr(Bn)-Gly-Trp-NHBn)	1.2	1.7	PA % inhibition (at 100 μM) [6]: 59%
CC(C)C[C@H](NC(=O)[C@H](Cc1ccc(OCc2ccccc2)cc1)NC(=O)OC(C)(C)C)C(=O)N[C@@H](Cc1c[nH]c2ccccc12)C(=O)NCc1ccccc1 [A414P, N-Boc-Tyr(Bn)-Leu-Trp-NHCH2Ph] (Boc-Tyr(Bn)-Leu-Trp-NHBn)	1.3	1.9	
CNC(=O)[C@H](Cc1c[nH]c2c(-c3cc(C[C@H](NC(=O)OC(C)(C)C)C(=O)N[C@@H](CC(C)C)C(=O)OC)ccc3OCc3ccccc3)cccc12)NC(=O)OCc1ccccc1 [SP226F1]			inhibition at 100 µM [5]: 23%
C[C@H](NC(=O)[C@H](Cc1ccc(OCc2ccccc2)cc1)NC(=O)OC(C)(C)C)C(=O)N[C@@H](Cc1c[nH]c2ccccc12)C(=O)NCCCCNC(=O)OC(C)(C)C [SP305R, N-Boc-Tyr(Bn)-Ala-Trp-NH(CH2)4NHBoc]	1.5	3.2	PA Activation factor [3]: 1.2
